In brackets after ≈: the same amount, converted by molar mass. Like-named read-outs stand apart in the source and are kept apart here.
Tests used:
Assay in all cases: Antifungal MIC/MLC (broth microdilution)
Type in all cases: cell-based, Candida albicans
C. albicans DSY294 = test system: C. albicans DSY294
Text: (§1) Twenty-three fungal strains were used in this study, including reference strains and clinical isolates of yeasts and filamentous fungi. Yeast strains included reference strains (ATCC—American Type Culture Collection and CECT—Colección Española de Cultivos Tipo) and clinical isolates: C. albicans ATCC 10231, Candida krusei ATCC 6258, C. albicans H37, C. albicans FF172, C. albicans FF176, C. albicans DSY294, C. albicans DSY296, C. glabrata DSY562, C. glabrata DSY565 and Cryptococcus neoformans CECT 1078. Filamentous fungi included Aspergillus fumigatus ATCC 240305, A. fumigatus C111, A. niger ATCC 16404, A. flavus F44, Fusarium solani FF125, F. oxysporum FF115, and dermatophytes Trichophyton rubrum FF5, T. mentagrophytes FF7, Microscoporum canis FF1 and Nannizzia gypsea FF3 (formerly Microsporum gypseum) and a species of genera Mucor, Lichetheimia and Scedosporium. Saprolegnia parasitica CBS 223.65, a reference strain of an oomycete fish pathogen, was also included. All microorganisms were kept in Sabouraud Dextrose Broth (SDB: BioMérieux, Marcy L'Etoile, France) plus glycerol (20%) at −80° C. The strains were kept in Sabouraud Dextrose Agar (SDA: BioMérieux, Marcy L'Etoile, France) slants and were sub-cultured in SDA before each test. S. parasitica was kept in Corn Meal Agar plates (CMA: BBL™ Corn Meal Agar, BD, Le Pont-de-Claix, France) and was sub-cultured in CMA before each experiment. C. albicans H37, was kindly provided by Cidilia Pina Vaz (CHSJ, Porto, Portugal) and C. albicans DSY294, C. albicans DSY296, C. glabrata DSY562, C. glabrata DSY565 were kindly provided by D. Sanglard (University of Lausanne, Switzerland). A stock solution of compound 1 (10 mg/mL), was prepared in dimethyl sulfoxide (DMSO 99%: Alfa Aesar, Kandel, Germany), kept at −20 degrees C., and freshly diluted in the appropriate culture media before each assay. In all experiments, in-test concentrations of DMSO were kept below 2%.
(§2) Antifungal activity was evaluated by determining the MIC of compound 1 by the broth microdilution method, according to CLSI guidelines (reference documents M27-A3 for yeasts and M38-A2 for filamentous fungi). Briefly, cell or spore suspensions were prepared in RPMI-1640 broth medium (Biochrom, Berlin, Germany) buffered with 3-(N-morpholino)propane sulfonic acid (MOPS) (Sigma-Aldrich, St. Louis, MO, USA) (henceforth referred to as RPMI) from fresh cultures of the different strains of fungi. For yeasts, the inoculum was adjusted to 0.5-2.5×10^3 CFU/mL. For filamentous fungi, the inoculum was adjusted to 1-3×10^3 CFU/mL for dermatophytes, and 0.4-5×10^4 CFU/mL for all other strains. […] Sterility and growth controls were included in each assay. The 96-well flat-bottomed untreated polystyrene microtiter plates which were incubated for 48 h at 35° C., with the exception of Lichetheimia spp. which was incubated at 25° C. for 48 h, and the dermatophyte strains, which incubated for 5-7 days at 25° C. […] The minimal lethal concentration (MLC) was determined by spreading 20 μL of culture collected from wells showing no visible growth on SDA plates. The MLC was determined as the lowest concentration showing complete growth inhibition after 48 h at 35 degrees C., 48 h at 25 degrees C.

C. albicans DSY296 = test system: C. albicans DSY296
Text: as §1, §2

C. albicans FF172 = test system: C. albicans FF172
Text: as §1, §2

C. albicans FF176 = test system: C. albicans FF176
Text: as §1, §2

C. albicans H37 = test system: C. albicans H37
Text: as §1, §2

[1] = C. albicans DSY296, resistant to fluconazole or azoles
[2] = C. albicans FF176, resistant to fluconazole or azoles
[3] = C. albicans H37, resistant to fluconazole or azoles

Row | SMILES | MIC (C. albicans DSY294; C. albicans DSY294) [µg/mL] | MLC (C. albicans DSY294; C. albicans DSY294) [µg/mL] | MIC (C. albicans DSY296; [1]) [µg/mL] | MLC (C. albicans DSY296; [1]) [µg/mL] | MIC (C. albicans FF172) [µg/mL] | MLC (C. albicans FF172) [µg/mL] | MIC (C. albicans FF176; [2]) [µg/mL] | MLC (C. albicans FF176; [2]) [µg/mL] | MIC (C. albicans H37; [3]) [µg/mL] | MLC (C. albicans H37; [3]) [µg/mL] | MIC (C. albicans DSY294; Candida albicans, DSY294) [µg/mL] | MIC (C. albicans DSY296; Candida albicans, DSY296, read-out: MIC) [µg/mL] | MIC (C. albicans FF172; Candida albicans, read-out: MIC) [µg/mL] | MIC (C. albicans FF176; Candida albicans, FF176, read-out: MIC) [µg/mL] | MIC (C. albicans H37; Candida albicans, H37, read-out: MIC) [µg/mL]
1 | C[C@H](CCC(=O)NCCN)[C@H]1CC[C@H]2[C@@H]3CC[C@@H]4C[C@H](O)CC[C@]4(C)[C@H]3C[C@H](O)[C@]12C [Compound 1, (R)—N-(2-aminoethyl)-4-((3R,5R,8R,9S,10S,12S,13R,14S,17R)-3,12-dihydroxy-10,13-dimethylhexadecahydro-1H-cyclopenta[a]phenanthren-17-yl) pentanamida] | 64 (≈ 147 µM) | 64 (≈ 147 µM) | 64 (≈ 147 µM) | 64 (≈ 147 µM) | 64 (≈ 147 µM) | 64 (≈ 147 µM) | 32 (≈ 73.6 µM) | 32 (≈ 73.6 µM) | 64 (≈ 147 µM) | 64 (≈ 147 µM) | – | – | – | – | –
2 | OC(Cn1cncn1)(Cn1cncn1)c1ccc(F)cc1F [Fluconazole, reference compound] | – | – | – | – | – | – | – | – | – | – | 0.125 (≈ 0.408 µM) | 64 (≈ 209 µM) | 0.25 (≈ 0.816 µM) | 32 (≈ 104 µM) | ≥ 128

Source: patent US20250002450A1, “CATIONIC STEROID COMPOUNDS, METHOD OF OBTAINING THEREOF, FORMULATIONS COMPRISING THEREOF AND THEIR USES” (UNIVERSIDADE DO PORTO, priority 2021, published 2025)
